Experimental data published in PubChem BioAssay (NCI).
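The compound was tested at five concentrations on cells cultured in 96-well plates, with a 48-hour exposure period. Definition used: TGI = concentration required for complete inhibition of growth.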

Experiments:
Experiment in all cases: growth of human tumour cells (NCI), 48 h
OVCAR-4 ovarian = system: OVCAR-4 ovarian
MDA-MB-231 breast = system: MDA-MB-231 breast
OVCAR-5 ovarian = system: OVCAR-5 ovarian
OVCAR-3 ovarian = system: OVCAR-3 ovarian
SN12C renal = system: SN12C renal
COLO 205 colon = system: COLO 205 colon
BT-549 breast = system: BT-549 breast
SNB-19 CNS = system: SNB-19 CNS
T-47D breast = system: T-47D breast
UO-31 renal = system: UO-31 renal
CCRF-CEM leukemia = system: CCRF-CEM leukemia
SK-MEL-28 melanoma = system: SK-MEL-28 melanoma
LOX IMVI melanoma = system: LOX IMVI melanoma
HL-60(TB) leukemia = system: HL-60(TB) leukemia
SK-MEL-5 melanoma = system: SK-MEL-5 melanoma
PC-3 prostate = system: PC-3 prostate
SK-MEL-2 melanoma = system: SK-MEL-2 melanoma
NCI/ADR-RES ovarian = system: NCI/ADR-RES ovarian
NCI-H23 lung = system: NCI-H23 lung
IGROV1 ovarian = system: IGROV1 ovarian
OVCAR-8 ovarian = system: OVCAR-8 ovarian
MOLT-4 leukemia = system: MOLT-4 leukemia
NCI-H522 lung = system: NCI-H522 lung
MCF7 breast = system: MCF7 breast
SW-620 colon = system: SW-620 colon
CAKI-1 renal = system: CAKI-1 renal
A498 renal = system: A498 renal
TK-10 renal = system: TK-10 renal
EKVX NSCLC = system: EKVX NSCLC
UACC-62 melanoma = system: UACC-62 melanoma
KM12 colon = system: KM12 colon
HOP-92 NSCLC = system: HOP-92 NSCLC
RXF 393 renal = system: RXF 393 renal
DU-145 prostate = system: DU-145 prostate
SF-295 CNS = system: SF-295 CNS
NCI-H226 lung = system: NCI-H226 lung
HOP-62 NSCLC = system: HOP-62 NSCLC
HT29 colon = system: HT29 colon
SF-539 CNS = system: SF-539 CNS
HS 578T breast = system: HS 578T breast
SF-268 CNS = system: SF-268 CNS
RPMI-8226 leukemia = system: RPMI-8226 leukemia
MDA-N = system: MDA-N
HCT-116 colon = system: HCT-116 colon
HCT-15 colon = system: HCT-15 colon
NCI-H460 lung = system: NCI-H460 lung
786-0 renal = system: 786-0 renal
HCC-2998 colon = system: HCC-2998 colon
U251 CNS = system: U251 CNS
MDA-MB-435 = system: MDA-MB-435
SNB-75 CNS = system: SNB-75 CNS
UACC-257 melanoma = system: UACC-257 melanoma
ACHN renal = system: ACHN renal
SR leukemia = system: SR leukemia
A549 NSCLC = system: A549 NSCLC
SK-OV-3 ovarian = system: SK-OV-3 ovarian
K-562 leukemia = system: K-562 leukemia
M14 melanoma = system: M14 melanoma
MALME-3M melanoma = system: MALME-3M melanoma

Measured: TGI

OC1(c2ccc(Cl)cc2)c2ccccc2-c2nc3ccccc3n21 (configuration not stated)
55 µM: RXF 393 renal
97.3 µM: SNB-19 CNS
not listed: MALME-3M melanoma
> 100 µM: all other assays above

CN(C)c1cccc(F)c1C(=O)NC(=O)Nc1ccc(Cl)cc1
99 µM: CAKI-1 renal
> 31.5 µM: HCT-15 colon
> 36.6 µM: RPMI-8226 leukemia
9.12 µM: SNB-75 CNS
> 44.4 µM: NCI/ADR-RES ovarian
5.77 µM: NCI-H522 lung
> 23.2 µM: HT29 colon
18.1 µM: HL-60(TB) leukemia
> 72.1 µM: MDA-MB-231 breast
> 22.3 µM: HS 578T breast
> 34.4 µM: K-562 leukemia
> 29.3 µM: SK-OV-3 ovarian
> 86.4 µM: OVCAR-8 ovarian
> 74.8 µM: A498 renal
> 21.4 µM: SF-295 CNS
69.6 µM: RXF 393 renal
> 67.9 µM: SK-MEL-2 melanoma
3.44 µM: MDA-MB-435
28.3 µM: HCC-2998 colon
0.762 µM: MDA-N
not listed: CCRF-CEM leukemia
> 100 µM: all other assays above

COC1CC(N)C(O)C(C)O1 (configuration not stated)
not listed: SK-MEL-2 melanoma | TK-10 renal | A549 NSCLC
> 100 µM: all other assays above
